From patent US8859587B2, “(2E)-3-phenyl-N-[2,2,2-Trifluoro-1-[[8-quinolineamino)thiomethyl]amino]ethyl]-2-acrylamide and pharmaceutical uses thereof” (Chinese PLA General Hospital, priority 2010, dated 2014)
Like-named read-outs stand apart in the source and are kept apart here. Marks after values point to notes of the source that are not given here.

Columns and labels:
[1] = system: apoptosis stimulation irrelevant to endocytoplasmic reticulum stress; assay: Protection against apoptosis stimulation irrelevant to endocytoplasmic reticulum stress; assay type: cell-based
[2] = system: primary cardiac muscle cells; assay type: cell-based, Wistar rats; conditions: 48 h, MTT, normal cells
Procedure: Animal: newly born Wistar rats, rat age: within 24 h, male and female
The separation and culture of cardiomyocyte refer to the method of differential adhesion separation (Kreider, A. Messing, H. Doan, S. U. Kim, R. P. Lisak and D. E. Pleasure, Enrichment of Schwann cell cultures from neonatal rat sciatic nerve by differential adhesion, Brain Res 2 (1981), pp. 433-444.), Wistar neonate rats newly born within 24 h were used to obtain primary cardiac muscle cells.
The separated primary culture of cardiac muscle cells as obtained by the above method were inoculated in an amount of 10^4 cells per well to a 96-well plate, and the volume of each well was 100 μl (marginal wells were filled with sterile PBS). After being cultivated in 5% CO2 and 37° C. incubator for 4 d, they were added with the compound of Formula 1 at different concentrations (0.3 μM, 1 μM, 3 μM, 10 μM, 30 μM, 100 μM), 3 double-wells were set for each concentration, at the same time, zero setting wells (culture medium, MTT, DMSO), and control wells (culture medium, DMSO) were also set. After continuous inoculation for 48 h, each well was added with 20 μl of MTT solution (5 mg/ml, formulated with PBS (pH=7.4), i.e., 0.5% MTT), and the cultivation was continued for 4 h. After the end of cultivation, culture medium in wells was carefully sucked out. Each well was added with 150 μl of DMSO, shaken at a low speed in a shaking table for 10 min, so that the crystal was sufficiently dissolved. The optical density (OD) value of each well was measured at wavelength of 550 nm by enzyme-linked immunoassay instrument, and each well was repeatedly measured for 5 times and the results were recorded.

[3] = system: primary cardiac muscle cells induced by TM; assay: Cardiomyocyte apoptosis induced by TM, TUNEL detection; assay type: cell-based, Wistar rats; conditions: for TUNEL detection (%) cardiomyocyte apoptosis rate: 24 h, n = 6
Procedure: The primary cardiac muscle cells obtained by the method according to the culture method of primary cardiac muscle cells of Example 1 were added with tunicamycin (TM) on the 4th day to perform interference test. The cells were randomly divided into 5 groups: solvent control group (DMSO), TM interference group (5 μg/ml), Compound of Formula I+TM interference group (10 μM+5 μg/ml), Compound of Formula I interference group ([…]+5 μg/ml), Compound of Formula I interference group ([…]+5 μg/ml).
It was 24 h after drug interference, the apoptotic cells were detected by terminal deoxynucleotidyl transferase-mediated biotinylated UTP nick end labeling (TUNEL) method, and the cells were treated according to the specification of kit. The cells treated with 0.1 mg/ml DNase I and growing on a glass slide were used as positive control. 5 or more visual fields were randomly selected under light microscope, the apoptotic cells (brown yellow granules seen in nucleus) among the cells were counted. Apoptosis rat=(number of positively stained nuclei/number of all nuclei)×100%.

O=C(/C=C/c1ccccc1)NC(NC(=S)Nc1cccc2cccnc12)C(Cl)(Cl)Cl (centres unmarked) [Compound of Formula I, (2E)-3-phenyl-N-[2,2,2-trichloro-1-[[(8-quinolylamino)thiomethyl]amino]ethyl]-2-acrylamide]
protection against apoptosis stimulation irrelevant to endocytoplasmic reticulum stress [1]: does not protect apoptosis stimulation irrelevant to endocytoplasmic reticulum stress | Cardiomyocyte survival rate (%) ([2]; 0.3 μM): 98.8562 ± 6.7316^a % | Cardiomyocyte survival rate (%) ([2]; 1 μM): 91.6667 ± 7.6257^a % | Cardiomyocyte survival rate (%) ([2]; 3 μM): 94.5261 ± 3.7997^a % | Cardiomyocyte survival rate (%) ([2]; 10 μM): 102.7778 ± 3.0645^a % | Cardiomyocyte survival rate (%) ([2]; 30 μM): 105.8007 ± 3.2639^a % | Cardiomyocyte survival rate (%) ([2]; 100 μM): 104.2484 ± 7.3625^a % | TUNEL detection (%) cardiomyocyte apoptosis rate ([3]; 10 μM + TM 5 μg/mL): 25.75 ± 0.97 ^b % | TUNEL detection (%) cardiomyocyte apoptosis rate ([3]; 20 μM + TM 5 μg/mL): 24.94 ± 0.82 ^b % | TUNEL detection (%) cardiomyocyte apoptosis rate ([3]; 40 μM + TM 5 μg/mL): 21.15 ± 0.85 ^b c % | apoptosis rate in comparison with the TM interference group (TUNEL) ([3]; 10, 20, 40 μM, P<0.05): significant decrease in apoptosis rate
